Columns and labels:
Experiment in all cases: CTG-3D luminescence at 96 h relative to day-0 seeding control (ratio to day 0); higher = more growth / less cytotoxicity; PDxO 3D drug screen (set 2), 96 h, CTG-3D normalised to day-0 seeding control.
[1] = tested on: HCI-016 (organoid from a triple-negative breast cancer xenograft)
[2] = tested on: HCI-011.E2 (organoid from an ER-positive breast cancer xenograft)
[3] = tested on: HCI-002 (organoid from a triple-negative breast cancer xenograft)
[4] = tested on: HCI-005.E2 (organoid from a breast cancer xenograft with a HER2-positive history)
[5] = tested on: HCI-024 (organoid from a breast cancer xenograft)
[6] = tested on: HCI-003.E2 (organoid from an ER-positive breast cancer xenograft)

O=C(c1cc(Cc2n[nH]c(=O)c3ccccc23)ccc1F)N1CCN(C(=O)C2CC2)CC1 [olaparib]
CTG-3D luminescence at 96 h
Details | 12.5 pM | 0.00025 µM | 0.005 µM | 0.1 µM | 1 µM | 10 µM | 100 µM | 625 fM
[1], days in culture: 305 | 2.92 | 2.24 | 2.09 | 3.71 | 1.96 | 1.22 | 0.878 | 3.99
[1], days in culture: 327 | 1.25 | 0.765 | 1.45 | 1.31 | 1.34 | 1.59 | 1.23 | 1.74
[1], days in culture: 341 | 1.92 | 1.78 | 2.18 | 2.46 | 1.62 | 1.79 | 0.982 | 2.44
[1], days in culture: 397 | 1.5 | 2.56 | 1.17 | 1.75 | 2.07 | 1.74 | 0.249 | 2.79
[2], days in culture: 74 | 2.53 | 2.44 | 2.19 | 2.22 | 1.57 | 0.94 | 0.157 | 2.66
[3], days in culture: 127 | 2.26 | 2.88 | 2.92 | 2.97 | 2.45 | 2.59 | 2.23 | 2.54
[3], days in culture: 155 | 4.7 | 4.7 | 5.6 | 6.16 | 4.47 | 2.8 | 2.34 | 4.33
[3], days in culture: 168 | 3.4 | 3.26 | 4.03 | 3.35 | 3.14 | 2.04 | 1.7 | 3.55
[5], days in culture: 202 | 0.819 | 0.984 | 0.907 | 1.28 | 0.775 | 1.01 | 0.38 | 1.05
[5], days in culture: 231 | 0.787 | 0.983 | 0.972 | 1.27 | 1.78 | 1.27 | 0.836 | 1.4
[5], days in culture: 254 | 1.65 | 1.41 | 1.28 | 1.24 | 1.88 | 1.07 | 0.671 | 1.54

CTG-3D luminescence at 96 h
Details | 12.5 pM | 0.00025 µM | 0.005 µM | 0.1 µM | 1 µM | 10 µM | 100 µM | 625 fM
[2] | 1.58 | 1.55 | 1.41 | 1.95 | 1.6 | 1.14 | 0.266 | 2.1
[4] | 1.62 | 2.3 | 2.07 | 2.39 | 2.1 | 1.27 | 0.485 | 2.24
[6] | 2.72 | 2.74 | 2.72 | 2.75 | 2.24 | 1.27 | 0.0215 | 2.79

C[C@@H](Nc1cc(F)cc(F)c1)c1cc(C(=O)N(C)C)cc2c(=O)cc(N3CCOCC3)oc12 [AZD-8186]
CTG-3D luminescence at 96 h
Details | 12.5 pM | 0.00025 µM | 0.005 µM | 0.1 µM | 1 µM | 10 µM | 100 µM | 625 fM
[1], days in culture: 305 | 3.52 | 4.53 | 2.53 | 4.16 | 1.53 | 1.97 | 1.51 | 4.97
[1], days in culture: 327 | 1.3 | 1.35 | 1.53 | 2.67 | 0.902 | 1.31 | 0.672 | 1.61
[1], days in culture: 341 | 2.01 | 1.59 | 2.07 | 1.7 | 1.81 | 2.04 | 0.88 | 2.55
[1], days in culture: 397 | 2.34 | 2.9 | 1.49 | 1.76 | 2.14 | 1.87 | 0.71 | 2.46
[2], days in culture: 74 | 2.16 | 1.88 | 1.79 | 2.21 | 1.49 | 1.12 | 0.136 | 2.4
[3], days in culture: 127 | 2.49 | 2.9 | 3.08 | 3.46 | 2.69 | 2.62 | 1.37 | 2.78
[3], days in culture: 155 | 4.16 | 4.76 | 5.31 | 5.43 | 4.16 | 3.89 | 1.67 | 4.15
[3], days in culture: 168 | 3.35 | 3.58 | 4.3 | 3.62 | 3.22 | 2.87 | 0.73 | 4.14
[5], days in culture: 202 | 1.88 | 0.916 | 0.693 | 1.33 | 0.84 | 1.61 | 0.461 | 1.39
[5], days in culture: 231 | 1.33 | 1.25 | 1.21 | 1.01 | 1.32 | 0.93 | 0.399 | 1.35
[5], days in culture: 254 | 1.17 | 1.68 | 1.81 | 2.04 | 0.901 | 1.55 | 0.743 | 1.01

CTG-3D luminescence at 96 h
Details | 12.5 pM | 0.00025 µM | 0.005 µM | 0.1 µM | 1 µM | 10 µM | 100 µM | 625 fM
[2] | 1.45 | 1.9 | 1.54 | 1.81 | 1.47 | 1.01 | 0.293 | 2.13
[4] | 1.82 | 2.18 | 2.26 | 2.54 | 2.24 | 1.51 | 0.592 | 1.97
[6] | 2.53 | 2.56 | 2.18 | 2.38 | 2.13 | 1.28 | 0.0452 | 2.58

— the supplement of paper PMC8882468
